The results in this text go back to the METLIN SMRT retention time set (Domingo-Almenara et al. 2019).

The series in a line: gradient 5% acetonitrile 3 min, to 50% in 2 min, to 85% in 15 min, held 3 min, 100 µL/min. The following applies: column: Zorbax Extend-C18 2.1 x 50 mm; eluents: water / acetonitrile, 0.1% formic acid. Summed up:
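The system's dead and dwell volumes were 40 μL and 900 μL, with a Zorbax Extend-C18 column (2.1 × 50 mm, 1.8 μm) run at 100 μL/min in water and acetonitrile containing 0.1% formic acid each. Pure standards were analyzed in mixtures of ~100 molecules by HPLC–quadrupole time-of-flight mass spectrometry in positive and negative ionization mode. Retention time was assigned from computationally picked, manually inspected adduct peaks.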
`O=C(Nc1ccc(OCc2nnc(-c3ccccc3)o2)cc1)c1ccc(Br)o1`: the RP-LC retention time amounted to 936 s.

In turn, `CN1CC(=O)NC(c2ccccc2F)C1=O` (stereo not drawn) displayed an RP-LC retention time of 513 s.

In turn, `CC(C)NC(=O)CCCN1C(=O)c2ccccc2Sc2ncccc21` displayed an RP-LC retention time of 674 s.

`CCn1ccc2sc(C)c(C(=O)NCc3ccccc3F)c2c1=O`: the RP-LC retention time amounted to 818 s.

The molecule `Cc1ccccc1CN1CC(F)(F)C[C@H]1COc1ccncc1` yielded an RP-LC retention time of 821 s.

For the molecule `CC(=O)N1CCc2cc(N3CC(C(=O)Nc4cc(F)cc(F)c4)CC3=O)ccc21` (stereo not drawn), the RP-LC retention time turned out to be 772 s.

`Cc1cc(-c2c(C)sc(C)c2S(=O)(=O)NC2CCCCCC2)n[nH]1` returned an RP-LC retention time of 1140 s.

The molecule `O=C1CN(C(=O)c2cccc(C(F)(F)F)c2)c2ccccc2N1` gave an RP-LC retention time of 732 s.

Consider `CCOc1ccc(NC(=O)Nc2c(-c3cccc(C)c3)nc3ccccn23)cc1`, for which the RP-LC retention time is 697 s.

In turn, `COc1ccc(NC(=O)N2CCC(c3nc(C(=O)N(C)C)c(C)o3)CC2)cc1` returned an RP-LC retention time of 676 s.

As to `CC(C)(C)c1ccc(C(=O)NC2(c3nc(-c4ccncc4)no3)CCCCC2)cc1`, the RP-LC retention time came out at 1190 s.

For the molecule `CCc1ccccc1NC(=O)C1(C)Oc2cccnc2N(C(C)C)C1=O` (stereo not drawn), the RP-LC retention time came out at 1010 s.

As for `O[C@@H]1CCCC[C@H]1N1CCC(c2ccccc2)CC1`, the RP-LC retention time was 661 s.

Turning to `COc1ccc(NC(=O)C2=C(C)C(=O)OC23CCCCCC3)cc1OC`, the RP-LC retention time worked out at 887 s.

On to `O=S(=O)(c1cccc(F)c1)N1CC(F)(F)C[C@H]1CN1CCc2ccccc2C1`, for which the RP-LC retention time was determined as 733 s.

Molecule `Cc1ccc(-c2nocc2CCC(=O)NCc2ccc(F)cc2)cc1` came in with an RP-LC retention time of 919 s.

Regarding `COc1cccc(-c2cc3n(n2)CCCN(C(=O)c2ccsc2)C3)c1`, the RP-LC retention time worked out at 714 s.

`O=C(Cn1cccc1-c1nnc(-c2ccccc2)o1)NCCc1ccccc1` came in with an RP-LC retention time of 950 s.

`Nc1c(C(=O)Nc2ccc([N+](=O)[O-])cc2)oc2ccccc12` returned an RP-LC retention time of 880 s.

`COc1ccccc1C(=O)N1CCCC(COc2ccc(C(=O)NC(C)C)cc2)C1` (stereo not drawn) came in with an RP-LC retention time of 830 s.

`COc1cccc(CC(=O)NC2CCN(c3cc(-c4ccccc4)[nH]n3)C2)c1` (stereo not drawn): the RP-LC retention time was found to be 673 s.

In turn, `CCOCCCNC(=O)C1CCCN(C(=O)c2cc(C)cc(C)c2)C1` (stereo not drawn) showed an RP-LC retention time of 743 s.

The molecule `Cc1nnc(SCC(=O)N2c3ccccc3CCc3ccccc32)s1` had an RP-LC retention time of 897 s.

In the case of `CC(C)CN(CC(C)C)c1nc(-c2ccc(C(C)(C)C)cc2)nc2ccccc12`, the RP-LC retention time came out at 1240 s.

Molecule `CN(CCc1noc(-c2ccccc2)n1)C(=O)Nc1ccc(F)c(Cl)c1` registered an RP-LC retention time of 954 s.

As for `COc1cc(C(=O)NC2C=CS(=O)(=O)C2)cc(OC)c1OC` (stereo not drawn), the RP-LC retention time turned out to be 615 s.

For `COc1ccc(C(=O)NC2CCN(c3cc(C)cc(C)c3)C2=O)cc1` (stereo not drawn), the RP-LC retention time was 878 s.

As to `CCOC(=O)c1cc(S(=O)(=O)N2CCCC2C(=O)Nc2ccc3c(c2)OCO3)cn1C` (stereo not drawn), the RP-LC retention time is 876 s.

As for `CCc1ccc(NC(=O)Cn2nc(N3CCC(C)CC3)c3ccccc3c2=O)cc1`, the RP-LC retention time came out at 1100 s.

`COc1ccc(-c2c(C)nn3c(N4CCN(c5ccccn5)CC4)cc(C)nc23)cc1OC` showed an RP-LC retention time of 600 s.

`Cc1ccc2c(c1)N(CCCC(=O)N1CCN(c3cc(=O)n(C)c(=O)n3C)CC1)C(=O)CO2` had an RP-LC retention time of 700 s.

`Cc1c(-c2noc(-c3cccc(F)c3)n2)nnn1-c1ccccc1`: the RP-LC retention time is 1090 s.

Turning to `O=C(CCCSc1ccc(NC(=O)c2ccc(F)cc2)nn1)Nc1nccs1`, the RP-LC retention time came out at 745 s.
